pKd: −log10 of the molar value. Where two headings read alike, the source gives them in different places. One block for each compound: values may come before it. Where a SMILES comes first, the peptide text is derived from it. Bridges are numbered along the chain shown (N, C = ends). [ ]: non-standard residue; d: D form. The star is where a group is joined. X2 = O=C(O)c1cc(C(=O)*)ccc1-c1c2ccc(=O)cc-2oc2cc(O)ccc12; Trp(1-CH2COOH) = N[C@@H](Cc1cn(CC(=O)O)c2ccccc12)C(=O)O; PEG12 = NCCOCCOCCOCCOCCOCCOCCOCCOCCOCCOCCOCCOCCC(=O)O; NMePhe(3-Cl) = CN[C@@H](Cc1cccc(Cl)c1)C(=O)O; NMeW = CN[C@@H](Cc1c[nH]c2ccccc12)C(=O)O; NMeY = CN[C@@H](Cc1ccc(O)cc1)C(=O)O; NMeF = CN[C@@H](Cc1ccccc1)C(=O)O; Chg = N[C@H](C(=O)O)C1CCCCC1; PEG4 = NCCOCCOCCOCCOCCC(=O)O; Nle = CCCC[C@H](N)C(=O)O; Sar = CNCC(=O)O
Target: transferrin receptor (hTfR) (Homo sapiens, UniProt P02786)
Experiment: Intermolecular interaction evaluation test between transferrin receptor (hTfR) and peptide by surface plasmon resonance (SPR)
Format: binding
Method in brief: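 hTfR captured on Ni-NTA chip then amine-coupled; peptides run single-cycle kinetics at 5–100 nM in 10 mM HEPES pH 8.0, 150 mM NaCl, 0.05% Tween 20, 0.1% BSA, 1.0% DMSO. KD from least-squares curve fitting of sensorgrams.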

[1] = binding to hTfR by SPR, Table 2 peptides, read-out: KD value (SPR) class
[2] = SPR, peptides, linker-added peptides and FITC conjugates, Patent ID 203-230, read-out: KD
[3] = SPR, linker and payload (FITC, VivoTag) conjugates, read-out: KD

transferrin receptor (hTfR), sequence (P02786 whole entry): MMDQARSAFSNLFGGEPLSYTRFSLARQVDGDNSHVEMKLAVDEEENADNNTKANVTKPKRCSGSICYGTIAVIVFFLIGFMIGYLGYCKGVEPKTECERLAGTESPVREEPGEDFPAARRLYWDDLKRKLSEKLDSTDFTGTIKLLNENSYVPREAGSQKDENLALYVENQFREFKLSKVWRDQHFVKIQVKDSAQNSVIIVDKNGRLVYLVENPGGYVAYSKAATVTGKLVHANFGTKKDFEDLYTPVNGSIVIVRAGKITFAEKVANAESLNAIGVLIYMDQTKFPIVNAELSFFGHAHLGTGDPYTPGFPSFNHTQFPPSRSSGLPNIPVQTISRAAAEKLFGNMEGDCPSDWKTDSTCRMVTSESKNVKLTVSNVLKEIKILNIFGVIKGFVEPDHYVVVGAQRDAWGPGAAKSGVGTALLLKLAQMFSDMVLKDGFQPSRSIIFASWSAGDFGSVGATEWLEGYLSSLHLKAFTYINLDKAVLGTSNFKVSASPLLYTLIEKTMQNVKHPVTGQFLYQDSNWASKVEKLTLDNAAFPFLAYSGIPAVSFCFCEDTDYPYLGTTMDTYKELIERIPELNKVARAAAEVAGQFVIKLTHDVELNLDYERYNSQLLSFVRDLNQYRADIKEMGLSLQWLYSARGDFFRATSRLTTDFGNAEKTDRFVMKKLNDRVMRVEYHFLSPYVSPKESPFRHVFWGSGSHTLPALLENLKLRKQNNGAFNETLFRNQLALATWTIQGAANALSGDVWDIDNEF

SMILES: CC[C@H](C)[C@@H]1NC(=O)[C@H](Cc2ccc(O)cc2)NC(=O)[C@H](Cc2ccc(O)cc2)NC(=O)[C@H](CC(N)=O)NC(=O)[C@H](Cc2cn(CC(=O)O)c3ccccc23)NC(=O)[C@H](C(C)C)NC(=O)[C@H](Cc2ccccc2)N(C)C(=O)[C@H](C(C)C)NC(=O)[C@H](C)NC(=O)CSC[C@@H](C(=O)N[C@H](CCC(=O)O)C(N)=O)NC(=O)[C@H](Cc2ccc(O)cc2)N(C)C(=O)[C@H](Cc2ccc(O)cc2)NC(=O)[C@@H](CCCNC(=N)N)NC(=O)[C@H](CCCNC(=N)N)NC(=O)[C@H](CCC(=O)O)NC1=O [compound 473] ({CH2CO}-AV[NMeF]V[Trp(1-CH2COOH)]NYYIER[dR]Y[NMeY]C[dE]-NH2; thioether N-15)
- pKd (SPR, hTfR, class symbols A-D, read-out: KD): 6.00 to 7.00

SMILES: CC[C@H](C)[C@@H]1NC(=O)[C@H](Cc2ccc(OC)cc2)NC(=O)[C@H](Cc2ccc(O)cc2)NC(=O)[C@H](CC(N)=O)NC(=O)[C@H](Cc2c[nH]c3ccccc23)N(C)C(=O)[C@H](C(C)C)NC(=O)[C@H](Cc2cccc(Cl)c2)N(C)C(=O)[C@H](CCC(=O)O)NC(=O)[C@H](C)NC(=O)CSC[C@@H](C(N)=O)NC(=O)[C@H](CO)NC(=O)[C@H]([C@@H](C)CC)NC1=O [compound 203] ({CH2CO}-AE[NMePhe(3-Cl)]V[NMeW]NYY(Me)IISC-NH2; thioether N-12)
- pKd [2]: 7.00 to 9.00

SMILES: CC[C@H](C)[C@@H]1NC(=O)[C@H](Cc2ccc(O)cc2)NC(=O)[C@H](Cc2ccc(O)cc2)NC(=O)[C@H](CC(N)=O)NC(=O)[C@H](Cc2c[nH]c3ccccc23)NC(=O)[C@H](C(C)C)NC(=O)[C@H](Cc2ccccc2)NC(=O)[C@H](C(C)C)NC(=O)[C@H](C)NC(=O)CSC[C@@H](C(N)=O)NC(=O)[C@H](Cc2ccc(O)cc2)N(C)C(=O)[C@H](Cc2ccc(O)cc2)NC(=O)[C@H](C)NC(=O)[C@H](CCC(=O)O)NC(=O)[C@H]([C@@H](C)CC)NC1=O [compound 252]
- pKd [1]: 6.00 to 7.00

SMILES: CC[C@H](C)[C@@H]1NC(=O)[C@H](Cc2ccc(O)cc2)NC(=O)[C@H](Cc2ccc(O)cc2)NC(=O)[C@H](CC(N)=O)NC(=O)[C@H](Cc2c[nH]c3ccccc23)N(C)C(=O)[C@H](C(C)C)NC(=O)[C@H](Cc2ccccc2)NC(=O)[C@H](C(C)C)NC(=O)[C@H](C)NC(=O)CSC[C@@H](C(=O)NCCOCCOCCOCCOCCC(=O)N[C@@H](CNC(=O)c2ccc(-c3c4ccc(=O)cc-4oc4cc(O)ccc34)c(C(=O)O)c2)C(N)=O)NC(=O)[C@H](Cc2ccc(O)cc2)N(C)C(=O)[C@H](Cc2ccc(O)cc2)NC(=O)[C@H](CCCNC(=N)N)NC(=O)[C@H](CCCNC(=N)N)NC(=O)[C@H]([C@@H](C)CC)NC1=O [compound 163]
- pKd [3]: 7.00 to 9.00

SMILES: CC[C@H](C)[C@@H]1NC(=O)[C@H](Cc2ccc(O)cc2)NC(=O)[C@H](Cc2ccc(O)cc2)NC(=O)[C@H](CC(N)=O)NC(=O)[C@H](Cc2c[nH]c3ccccc23)NC(=O)[C@H](C(C)C)NC(=O)[C@H](Cc2ccccc2)NC(=O)[C@H](C(C)C)NC(=O)[C@H](C)NC(=O)[C@H](CO)NC(=O)[C@H](C)NC(=O)CSC[C@@H](C(=O)NCCOCCOCCOCCOCCOCCOCCOCCOCCOCCOCCOCCOCCC(=O)N[C@@H](CCCCNC(=O)c2ccc(-c3c4ccc(=O)cc-4oc4cc(O)ccc34)c(C(=O)O)c2)C(N)=O)NC(=O)[C@H](C)NC(=O)[C@H](Cc2c[nH]c3ccccc23)NC(=O)[C@H](CCCNC(=N)N)NC(=O)[C@H](CC(N)=O)NC(=O)[C@H]([C@@H](C)CC)NC1=O [compound 155] ({CH2CO}-ASAVFVWNYYIINRWAC[PEG12]K(X2)-NH2; thioether N-17)
- pKd [3]: 7.00 to 9.00

SMILES: CC[C@H](C)[C@@H]1NC(=O)[C@H](Cc2ccc(O)cc2)NC(=O)[C@H](Cc2ccc(O)cc2)NC(=O)[C@H](CC(N)=O)NC(=O)[C@H](Cc2c[nH]c3ccccc23)NC(=O)[C@H](C(C)C)NC(=O)[C@H](Cc2ccccc2)N(C)C(=O)[C@H](C(C)C)NC(=O)[C@H](C)NC(=O)CSC[C@@H](C(=O)NCCOCCOCCOCCOCCC(=O)N[C@@H](CNC(=O)c2ccc(-c3c4ccc(=O)cc-4oc4cc(O)ccc34)c(C(=O)O)c2)C(N)=O)NC(=O)[C@H](Cc2ccc(O)cc2)N(C)C(=O)[C@H](Cc2ccc(O)cc2)NC(=O)[C@H](CCCNC(=N)N)NC(=O)[C@H](CCCNC(=N)N)NC(=O)[C@H]([C@@H](C)CC)NC1=O [compound 162]
- pKd [3]: 7.00 to 9.00

SMILES: CC[C@H](C)[C@@H]1NC(=O)[C@H](C2CCCCC2)NC(=O)[C@H](Cc2ccc(O)cc2)NC(=O)[C@H](Cc2ccc(O)cc2)NC(=O)[C@H](CC(N)=O)NC(=O)[C@H](Cc2c[nH]c3ccccc23)NC(=O)[C@H](C2CCCCC2)NC(=O)[C@H](Cc2ccccc2)N(C)C(=O)[C@H](C(C)C)NC(=O)[C@H](C)NC(=O)CSC[C@@H](C(N)=O)NC(=O)[C@H](Cc2ccc(O)cc2)N(C)C(=O)[C@H](Cc2ccc(O)cc2)NC(=O)[C@H](CCCNC(=N)N)NC(=O)[C@H](CCCNC(=N)N)NC1=O [compound 267] ({CH2CO}-AV[NMeF][Chg]WNYY[Chg]IRRY[NMeY]C-NH2; thioether N-15)
- pKd [1]: 6.00 to 7.00

SMILES: CC[C@H](C)[C@@H]1NC(=O)[C@H](Cc2ccc(OC)cc2)NC(=O)[C@H](Cc2ccc(O)cc2)NC(=O)[C@H](CC(N)=O)NC(=O)[C@H](Cc2c[nH]c3ccccc23)N(C)C(=O)[C@H](C(C)C)NC(=O)[C@H](Cc2cccc(Cl)c2)N(C)C(=O)[C@H](C(C)C)NC(=O)[C@H](C)NC(=O)CSC[C@@H](C(=O)N(C)CC(=O)N(C)CC(=O)N(C)CC(N)=O)NC(=O)[C@H](Cc2ccc(O)cc2)N(C)C(=O)[C@H](Cc2ccccc2)NC(=O)[C@@H](CCCNC(=N)N)NC(=O)[C@H](CCCNC(=N)N)NC(=O)[C@H]([C@@H](C)CC)NC1=O [compound 399] ({CH2CO}-AV[NMePhe(3-Cl)]V[NMeW]NYY(Me)IIR[dR]F[NMeY]C[Sar][Sar][Sar]-NH2; thioether N-15)
- pKd: 7.00 to 9.00

Further lines, results first:

- pKd [1]: > 9.00
SMILES: CC[C@H](C)[C@@H]1NC(=O)[C@H](Cc2ccc(OC)cc2)NC(=O)[C@H](Cc2ccc(O)cc2)NC(=O)[C@H](CC(N)=O)NC(=O)[C@H](Cc2c[nH]c3ccccc23)N(C)C(=O)[C@H](C(C)C)NC(=O)[C@H](Cc2cccc(Cl)c2)N(C)C(=O)[C@H](CCC(=O)O)NC(=O)[C@H](C)NC(=O)CSC[C@@H](C(N)=O)NC(=O)[C@H](Cc2ccc(O)cc2)N(C)C(=O)[C@H](Cc2ccccc2)NC(=O)[C@H](CCCNC(=N)N)NC(=O)[C@H](CCCNC(=N)N)NC(=O)[C@H]([C@@H](C)CC)NC1=O [compound 233]

- pKd (surface plasmon resonance, hTfR, read-out: KD value for hTfR by SPR (class symbol)): 7.00 to 9.00
SMILES: CCCC[C@@H]1NC(=O)[C@H]([C@@H](C)CC)NC(=O)[C@H]([C@@H](C)CC)NC(=O)[C@H](Cc2ccc(OC)cc2)NC(=O)[C@H](Cc2ccc(O)cc2)NC(=O)[C@H](CC(N)=O)NC(=O)[C@H](Cc2c[nH]c3ccccc23)N(C)C(=O)[C@H](C(C)C)NC(=O)[C@H](Cc2cccc(Cl)c2)N(C)C(=O)[C@H](C(C)C)NC(=O)[C@H](C)NC(=O)CSC[C@@H](C(=O)NCCOCCOCCOCCOCCC(N)=O)NC(=O)[C@H](Cc2ccc(O)cc2)N(C)C(=O)[C@H](Cc2ccccc2)NC(=O)[C@@H](CCCNC(=N)N)NC1=O [compound 361] ({CH2CO}-AV[NMePhe(3-Cl)]V[NMeW]NYY(Me)II[Nle][dR]F[NMeY]C[PEG4]-NH2; thioether N-15)

- pKd [2]: 7.00 to 9.00
SMILES: CC[C@H](C)[C@@H]1NC(=O)[C@H](Cc2ccc(OC)cc2)NC(=O)[C@H](Cc2ccc(O)cc2)NC(=O)[C@H](CC(N)=O)NC(=O)[C@H](Cc2c[nH]c3ccccc23)N(C)C(=O)[C@H](C(C)C)NC(=O)[C@H](Cc2cccc(Cl)c2)N(C)C(=O)[C@H](CCC(=O)O)NC(=O)[C@H](C)NC(=O)CSC[C@@H](C(=O)NCC(=O)NCC(=O)NCC(=O)NCC(=O)N[C@@H](CO)C(=O)N[C@@H](CO)C(=O)N[C@@H](CS)C(N)=O)NC(=O)[C@H](Cc2ccc(O)cc2)N(C)C(=O)[C@H](Cc2ccccc2)NC(=O)[C@@H](CCCNC(=N)N)NC(=O)[C@H](CCCCN)NC(=O)[C@H]([C@@H](C)CC)NC1=O [compound 229]

- pKd (SPR, hTfR No. 894 variants with PEG12c linker (Table 2), read-out: KD): 7.00 to 9.00
SMILES: CC[C@H](C)[C@@H]1NC(=O)[C@H](Cc2ccc(O)cc2)NC(=O)[C@H](Cc2ccc(O)cc2)NC(=O)[C@H](CC(N)=O)NC(=O)[C@H](Cc2c[nH]c3ccccc23)NC(=O)[C@H](C(C)C)NC(=O)[C@H](Cc2ccccc2)N(C)C(=O)[C@H](C(C)C)NC(=O)[C@H](C)NC(=O)CSC[C@@H](C(=O)NCCOCCOCCOCCOCCOCCOCCOCCOCCOCCOCCOCCOCCC(N)=O)NC(=O)[C@H](Cc2ccc(O)cc2)N(C)C(=O)[C@H](Cc2ccc(O)cc2)NC(=O)[C@H](CCCNC(=N)N)NC(=O)[C@H](Cc2ccc(O)cc2)NC(=O)[C@H]([C@@H](C)CC)NC1=O [compound 121] ({CH2CO}-AV[NMeF]VWNYYIIYRY[NMeY]C[PEG12]-NH2; thioether N-15)

- pKd (surface plasmon resonance, peptide vs hTfR, read-out: KD value for hTfR by SPR (class symbol)): 7.00 to 9.00
SMILES: CC[C@H](C)[C@@H]1NC(=O)[C@H](Cc2ccc(O)cc2)NC(=O)[C@H](Cc2ccc(O)cc2)NC(=O)[C@H](CC(N)=O)NC(=O)[C@H](Cc2c[nH]c3ccccc23)NC(=O)[C@H](C(C)C)NC(=O)[C@H](Cc2ccccc2)N(C)C(=O)[C@H](C(C)C)NC(=O)[C@H](C)NC(=O)CSC[C@@H](C(=O)NCCOCCOCCOCCOCCOCCOCCOCCOCCOCCOCCOCCOCCC(N)=O)NC(=O)[C@H](Cc2ccc(O)cc2)N(C)C(=O)[C@H](Cc2ccc(O)cc2)NC(=O)[C@H](CCCNC(=N)N)NC(=O)[C@H](CCCNC(=N)N)NC(=O)[C@H]([C@@H](C)CC)NC1=O [compound 420]

- pKd (surface plasmon resonance, peptide vs hTfR, read-out: KD value, hTfR binding by SPR (class symbol)): 7.00 to 9.00
SMILES: CC[C@H](C)[C@@H]1NC(=O)[C@H](Cc2ccc(O)cc2)NC(=O)[C@H](Cc2ccc(O)cc2)NC(=O)[C@H](CC(N)=O)NC(=O)[C@H](Cc2c[nH]c3ccccc23)NC(=O)[C@H](C(C)C)NC(=O)[C@H](Cc2ccccc2)N(C)C(=O)[C@H](C(C)C)NC(=O)[C@H](C)NC(=O)CSC[C@@H](C(N)=O)NC(=O)[C@H](Cc2ccc(O)cc2)N(C)C(=O)[C@H](Cc2ccc(O)cc2)NC(=O)[C@H](CCCNC(=N)N)NC(=O)[C@H](CCCNC(=N)N)NC(=O)[C@H]([C@@H](C)CC)NC1=O [compound 296]

From US20230203098A1, “HUMAN TRANSFERRIN RECEPTOR BINDING PEPTIDE” (priority 2020, published 2023)
